# Laboratory results: patent publication US20260049101A1, “TOPICAL TREATMENT OF SKIN CANCER USING OLIGOPEPTIDES” (BACOBA AG, priority 2022, published 2026)
# Entries after “also recorded” stand apart in the source; their conditions may differ. Where two headings read alike, the source gives them in different places. Square brackets hold non-standard residues; d marks the D form. Peptide text beside a SMILES is read from it. * marks the point of attachment. NH(1-CH2NMe2-cBu) = CN(C)CC1(N*)CCC1; Benzoyl(4-F) = O=C(c1ccc(F)cc1)*; hCha = N[C@@H](CCC1CCCCC1)C(=O)O; Aib = CC(C)(N)C(=O)O; βAla = NCCC(=O)O
# How the values were obtained:
# [1] = test system: cutaneous melanoma M150672; details: read-out: IC50 M150672
# Procedure: For the maintenance of healthy human fibroblast cell culture Dulbecco's Modified Eagle Medium (DMEM, Cat #11966025, Gibco) supplemented with 10% heat-inactivated fetal bovine serum (Cat #S006420H01, BioWest) was used. For the maintenance of melanoma cell cultures RPMI-1640 (Cat #R0883, Gibco) supplemented with L-glutamine (Cat #25030-081, Gibco), 1 mM sodium pyruvate (Cat #S8636, Sigma-Aldrich), 10% heat-inactivated fetal bovine serum (Cat #S006420H01, BioWest) and 1% Penicillin-Streptomycin (Cat #15140122, Gibco) was used. The MyLa_CTCL cell cultures were cultivated in RPMI 1640 Medium (R0883) supplemented with 2 mM L-Glutamine (G7513), 10 U/ml IL-2 (H7041), 10 U/ml IL-4 (H7291) and 10% Human AB Serum (H4522). The cutaneous squamous cell carcinoma cell cultures A431 and SCC13 were cultivated in Dulbecco's Modified Eagle Medium (DMEM, Cat #11966025, Gibco) supplemented with 10% heat-inactivated fetal bovine serum (Cat #S006420H01, BioWest).
# To determine the half maximal inhibitory concentrations (IC50's) serial dilution of compounds in DMSO to 1000× was performed (10 mM, 5 mM, 1 mM, 500 μM, 250 μM, 100 μM, 10 μM, 1 μM). 2 μl of these dilutions were further diluted in 198 μl growth medium with supplements, mixed well and 10 μl were further dispensed in triplicates to the 96-well plates containing cells in 90 μl.
# For each drug condition and cell culture (for each row of the triplicate) a well with only RPMI-1640 complete/KSFM/DMEM media and one with media and DMSO were made as controls. DMSO was never at a higher concentration than 0.2% v/v. Triplicates were seeded for each condition. On the day of the assay, the medium was exchanged with cell culture media containing 0.1% of Resazurin-sodium salt stock solution (stock: 0.015 mg/ml, in PBS, Cat #R7017, Sigma-Aldrich). […] With a fluorescence-based plate reader (Infinite M200 Pro, Tecan, Switzerland) using excitations between […] and emissions at 590 nM the cell-culture plates were readout. The calculations and graphs are performed with GraphPad Prism program. Vehicle treated wells were set to 100% viability.
# [2] = Dermal tolerability in the in vivo efficacy test; parameters: species or system mouse; details: 20 μl of 5% 6027 once a day
# Procedure: In vivo efficacy test methodology. C57Bl/6 mice (Janvier Labs); females; 6-8 weeks old at beginning of the treatment. The tumour was induced through intradermal inoculation of 1×10^5 cells per mouse intradermally in the skin of the neck. A total of 24 mice were used (n=8 for vehicle, n=8 for 5% 6027, n=8 for leucinostatin A 0.2%). Test item was applied starting on day 1 after inoculation of the tumour cells. The test items of 20 μl of 5% 6027 and of 0.2% Leucinostatin A were applied dermally with a pipette once a day every day for up to 21 days to the intact skin area of about 1 cm^2 on the site were the B16-F10 cells had been injected. If ulceration occurred then the animal was removed from the test and sacrificed.
# [3] = test system: patient derived Basal Cell Carcinoma (BCC); format: cell-based, human; details: 4 days, vs DMSO; for cell proliferation (Ki67): p<0.002
# Source text: Tumour material was harvested from an infiltrative basal cell carcinoma (BCC) from a patient's nose.
# [4] = test system: B16F10 xenografts in C57BL/6 mice; test: Histopathology (Ki67, TUNEL) of tumour slices from treated mice; format: in vivo, mouse; details: daily 20 μl of 6027 vs vehicle treated controls; Two-Way ANOVA
# Procedure: The read out was tumour volume measured three times a week expressed as tumour volume (in cm^3). Additionally, tumour samples were taken for histological analysis (Tumour FFPE) (2 mice per group).
# Histopathology. After sacrifice non ulcerated tumours were sampled and paraffin blocks were prepared for immunohistochemistry stainings. […] During interphase, the Ki-67 antigen can be exclusively detected within the cell nucleus, whereas in mitosis most of the protein is relocated to the surface of the chromosomes. Ki-67 protein is present during all active phases of the cell cycle (G1, S, G2 and mitosis), but is absent in resting (quiescent) cells (G0). Cellular content of Ki-67 protein markedly increases during cell progression through S phase of the cell cycle.
# TUNEL staining was used to determine areas of the tumour in which apoptosis was observed. Terminal deoxynucleotidyl transferase dUTP nick end labeling (TUNEL) staining is a method for detecting DNA fragmentation by labeling the 3′-hydroxyl termini in DNA double-stranded breaks generated during apoptosis.
# [5] = test system: patient derived high grade cutaneous squamous cell carcinoma (cSCC); test: Ex vivo patient-derived high grade cSCC (Example 11), Ki67; format: cell-based, human; details: 500 nM, 4 days, vs DMSO; p<0.003
# Source text: Tumour material was harvested from high grade cutaneous squamous cell carcinoma (cSCC) from a patient's head.
# [6] = test system: cutaneous squamous cell carcinoma cell line SCC12; test: In vitro anti-proliferative assay (resazurin) in SCC12; format: cell-based; details: SCC12, 72 hours
# Source text: Methodology. The cutaneous squamous cell carcinoma cell culture SCC12 was cultivated in keratinocyte-SFM media (KSFM, Cat #17005042, Gibco) supplemented with human recombinant epidermal growth factor 1-53 (EGF 1-53) and bovine pituitary extract (BFE).
# Vehicle treated wells were set to 100% viability.
# [7] = Franz cells, 48 hours, donor 0.1% 6027 in DMSO, acceptor PBS + 2% Volpo; % of total 6027
# Procedure: Pig ears from freshly slaughtered pigs, not older than 5 months and of both sexes, were obtained from the slaughterhouse Bell Schweiz AG (Basel, Switzerland). The ears were washed with tap water and the hairs were removed with an electric clipper. The skin was separated from the underlying cartilage from the backside of the ear by using a scalpel. After washing the skin again, it was stored in aluminium foil at −20° C. for no longer than one month.
# After thawing the frozen skin, it was cut into adequate circles and the skin thickness was measured with a calliper. The skin was mounted into the FDC, tightly sealed with Teflon band and fixed in special designed holder. Then the acceptor compartment was equipped with a magnetic stirrer, filled with placebo formulation and equilibrated for one hour. To check the barrier integrity and to be sure that there are no invisible damages from skin preparation TEWL (transepidermal water loss) was measured. The FDCs were then placed in the water bath +32° C.±1 over a magnetic stirrer (500 rpm). Due to differences of each FDC, the skin application area for drug permeation was measured and calculated for each cell in advance. Consequently, the amount of 6027 for the donor compartment had to be adjusted for the infinite-dose experiment to 284.1 μL/cm^2.
# At predefined time points 50 μL samples were taken from the acceptor compartment. The missing volume was replaced with the corresponding placebo formulation.
# At the end of the permeation experiment and before reassembling the FDCs, the donor compartments were washed out with 10 mL ACN:H2O (55:45).
# To extract 6027 from the skin, the frozen skin was cut into small pieces and grinded by a cryogenic grinder Freezer/Mill® from Spex SamplePrep (Metuchen, USA). The setting was 10 min precooling and a rate of 10 CPS for 4 cycles with 2 minutes. The resulting powder was resuspended in 2 mL ACN:H2O (55:45). […]
# The concentrations of 6027 were determined by using HPLC-MS from Agilent Technologies. […]
smiles,measurement,setting,value
"CC(C)C[C@H](NC(=O)[C@H](CCC1CCCCC1)NC(=O)[C@@H]1CCCN1C(=O)c1ccc(F)cc1)C(=O)NC(C)(C)C(=O)N[C@@H](CC(C)C)C(=O)N[C@@H](CC(C)C)C(=O)NC(C)(C)C(=O)NC(C)(C)C(=O)NCCC(=O)NC1(CN(C)C)CCC1 [Compound 6027, (2S)-2-[(2S)-4-cyclohexyl-2-{[(2S)-1-(4-fluorobenzoyl)pyrrolidin-2-yl]formamido}butanamido]-N-(1-{[(1S)-1-{[(1S)-1-({1-[(1-{[2-({1-[(dimethylamino)methyl]cyclobutyl}carbamoyl)ethyl]carbamoyl}-1-methylethyl)carbamoyl]-1-methylethyl}carbamoyl)-3-methylbutyl]carbamoyl}-3-methylbutyl]carbamoyl}-1-methylethyl)-4-methylpentanamide] ({Benzoyl(4-F)}-P[hCha]L[Aib]LL[Aib][Aib][βAla]-{NH(1-CH2NMe2-cBu)})",IC50,[1],122 nM
same,skin irritations or other side effects,[2],No skin irritations or other side effects were observed; also recorded: did not show skin irritations
same,tolerability of dermal treatment,[2],well tolerated
same,apoptotic cells (TUNEL staining),[3]; 500 nM,Significant increase
same,cell proliferation (Ki67),[3]; 500 nM,significantly reduced
same,cell proliferation (Ki67),[3]; 1 μM,significantly reduced
same,apoptotic cells (TUNEL staining),[3],Significant increase
same,apoptotic cells (TUNEL) in tumour slices,[4],significant increase of apoptotic cells; also recorded: Strong proapoptotic potential
same,proliferative cells (Ki67) in tumour slices,[4],significant decrease in proliferative cells
same,cell proliferation (Ki67),[5],significantly reduced
same,IC50,[6],118 nM
same,Acceptor (%),[7],0.2%
same,Donor (%),[7],79%
same,Skin extraction (%) (skin penetration),[7],16%
